Experimental data as given in US12655173B2, “Hybrid amide derivatives of amphotericin B” (priority 2020, dated 2026).
Values after ≈ are worked out from the molar mass of the structure shown. Where two headings read alike, the source gives them in different places.

What was measured:
C. albicans SN250 = assay: In vivo efficacy in murine candidiasis model (C. albicans SN250), female CD-1 mice, kidney fungal burden
[1] = UV-Vis sterol binding assay
Protocol: UV-Vis is Binding Assay (FIG. 1A): The protocol for the sterol binding assay (UV-Vis) was developed in our lab. Compounds were dissolved in DMSO at a final concentration of 1 mM. Sterol were first dissolved in CHCl3 (>200 mM) and then diluted to 1 mM concentration with DMSO To synthesize the complex 1 ul of compound solution was taken in a clean eppendorf tube (2 ml) and sterol solution (volume depends on the stoichiometry) was added to it and the volume was made up to 20 ul with DMSO. 0.98 ml of PBS buffer was added to the Eppendorf tube and mixed properly. The absorbance of the solution was measured after 30 mins of incubation.

A. flavus = assay: MIC against moulds; type: cell-based
A. terreus = assay: MIC against moulds; type: cell-based
A. lentulus = assay: MIC against moulds; type: cell-based; conditions: 6 isolates, AmB (AmBisome)
Histoplasma capsulatum = assay: microbe, parasite or virus in culture; type: cell-based; conditions: for MIC Histoplasma capsulatum: 6 isolates, AmB (AmBisome)
[2] = system: P. variotii MYA-3630 (QC); assay: MIC against moulds; type: cell-based; conditions: 5 isolates, AmB (AmBisome)
Licht. Corymbifera = assay: MIC against moulds; type: cell-based; conditions: 6 isolates, AmB (AmBisome)
Licht. Ramosa = assay: MIC against moulds; type: cell-based; conditions: 6 isolates; AmB (AmBisome)
Saksenaea sp. = assay: MIC against moulds; type: cell-based; conditions: 4 isolates; AmB (AmBisome)
Candida krusei = assay: MIC against yeasts; type: cell-based
Cryptococcus neoformans = assay: MIC against yeasts; type: cell-based
Candida albicans = assay: MIC against yeasts; type: cell-based; conditions: 15 isolates, Table 3A
Candida tropicalis = assay: MIC against yeasts; type: cell-based; conditions: 10 isolates, Table 3A
Candida glabrata = assay: MIC against yeasts; type: cell-based; conditions: Nakaseomyces glabratus; 5 isolates; Table 3A
Malassezia furfur = assay: MIC against yeasts (Table 3A); type: cell-based; conditions: 3 isolates
Microsporum canis = assay: MIC against yeasts (Table 3A); type: cell-based; conditions: 2 isolates
Scedosporium apiospermum = assay: MIC against yeasts (Table 3A); type: cell-based; conditions: 2 isolates
Scedosporium prolificans = assay: MIC against yeasts (Table 3A); type: cell-based; conditions: Lomentospora prolificans, 2 isolates
Epidermophyton floccosum = assay: MIC against yeasts (Table 3A); type: cell-based; conditions: 2 isolates
[3] = system: Purpureocillium lilacinum; assay: MIC against rare moulds resistant to AmB; type: cell-based; conditions: 6 isolates, Table 4
[4] = Liver microsome stability; conditions: rat, dog, monkey; for Liver microsome (T1/2, min): Mouse, human: All species
[5] = Mouse single IV injection: mortality
[6] = Tolerance study, IP dosing in immunocompromised mice, no infection; conditions: 25 mg/kg QD IP 7 days, observed 14 days
P450 1A2 = P450 1A2 (Homo sapiens, UniProt P05177); assay: P450 inhibition 1A2; type: in vitro ADME
P450 1A2, sequence (P05177 whole entry): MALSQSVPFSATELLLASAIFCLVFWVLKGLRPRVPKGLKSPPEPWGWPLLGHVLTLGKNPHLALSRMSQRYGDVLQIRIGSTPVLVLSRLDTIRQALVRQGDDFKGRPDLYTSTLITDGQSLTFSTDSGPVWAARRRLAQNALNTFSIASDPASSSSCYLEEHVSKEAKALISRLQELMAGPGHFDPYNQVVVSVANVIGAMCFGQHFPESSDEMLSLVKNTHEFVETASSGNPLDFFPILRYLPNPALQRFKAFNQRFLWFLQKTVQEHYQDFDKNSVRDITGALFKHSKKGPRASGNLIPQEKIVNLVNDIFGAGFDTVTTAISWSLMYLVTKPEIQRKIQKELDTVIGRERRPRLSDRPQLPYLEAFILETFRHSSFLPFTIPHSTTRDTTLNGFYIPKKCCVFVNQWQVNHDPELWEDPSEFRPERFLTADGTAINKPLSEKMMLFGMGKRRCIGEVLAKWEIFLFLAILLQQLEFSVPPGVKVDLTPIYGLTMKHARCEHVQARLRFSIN

P450 2C9 = P450 2C9 (Homo sapiens, UniProt P11712); assay: P450 inhibition 2C9; type: in vitro ADME
P450 2C9, sequence (P11712 whole entry): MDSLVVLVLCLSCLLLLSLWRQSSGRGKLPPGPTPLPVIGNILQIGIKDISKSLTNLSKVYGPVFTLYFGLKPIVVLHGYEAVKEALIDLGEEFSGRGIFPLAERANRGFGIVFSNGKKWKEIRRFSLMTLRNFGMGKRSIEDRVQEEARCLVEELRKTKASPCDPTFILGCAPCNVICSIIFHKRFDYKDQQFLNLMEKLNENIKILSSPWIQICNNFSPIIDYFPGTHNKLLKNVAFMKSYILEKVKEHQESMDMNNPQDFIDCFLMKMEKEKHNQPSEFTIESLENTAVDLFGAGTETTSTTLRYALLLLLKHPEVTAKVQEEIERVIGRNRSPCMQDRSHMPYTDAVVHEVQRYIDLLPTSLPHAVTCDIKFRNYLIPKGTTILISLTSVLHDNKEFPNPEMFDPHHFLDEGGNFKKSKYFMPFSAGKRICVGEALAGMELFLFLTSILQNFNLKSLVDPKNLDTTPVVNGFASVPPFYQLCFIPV

P450 2C19 = P450 2C19 (Homo sapiens, UniProt P33261); assay: P450 inhibition 2C19; type: in vitro ADME
P450 2C19, sequence (P33261 whole entry): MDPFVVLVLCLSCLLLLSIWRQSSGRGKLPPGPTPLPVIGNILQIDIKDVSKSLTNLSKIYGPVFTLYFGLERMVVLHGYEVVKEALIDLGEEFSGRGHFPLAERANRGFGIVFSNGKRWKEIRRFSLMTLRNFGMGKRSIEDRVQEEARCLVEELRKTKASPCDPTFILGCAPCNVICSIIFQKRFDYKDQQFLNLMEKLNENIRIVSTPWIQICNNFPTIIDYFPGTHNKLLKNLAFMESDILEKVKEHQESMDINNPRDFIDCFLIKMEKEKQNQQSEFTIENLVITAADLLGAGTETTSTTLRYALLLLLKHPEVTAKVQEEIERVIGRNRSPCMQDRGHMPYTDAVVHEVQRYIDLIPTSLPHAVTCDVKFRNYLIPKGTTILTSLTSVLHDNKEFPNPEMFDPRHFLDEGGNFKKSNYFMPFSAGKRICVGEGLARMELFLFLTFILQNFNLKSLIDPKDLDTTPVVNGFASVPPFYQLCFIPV

P450 2D6 = P450 2D6 (Homo sapiens, UniProt P10635); assay: P450 inhibition 2D6; type: in vitro ADME
P450 2D6, sequence (P10635 whole entry): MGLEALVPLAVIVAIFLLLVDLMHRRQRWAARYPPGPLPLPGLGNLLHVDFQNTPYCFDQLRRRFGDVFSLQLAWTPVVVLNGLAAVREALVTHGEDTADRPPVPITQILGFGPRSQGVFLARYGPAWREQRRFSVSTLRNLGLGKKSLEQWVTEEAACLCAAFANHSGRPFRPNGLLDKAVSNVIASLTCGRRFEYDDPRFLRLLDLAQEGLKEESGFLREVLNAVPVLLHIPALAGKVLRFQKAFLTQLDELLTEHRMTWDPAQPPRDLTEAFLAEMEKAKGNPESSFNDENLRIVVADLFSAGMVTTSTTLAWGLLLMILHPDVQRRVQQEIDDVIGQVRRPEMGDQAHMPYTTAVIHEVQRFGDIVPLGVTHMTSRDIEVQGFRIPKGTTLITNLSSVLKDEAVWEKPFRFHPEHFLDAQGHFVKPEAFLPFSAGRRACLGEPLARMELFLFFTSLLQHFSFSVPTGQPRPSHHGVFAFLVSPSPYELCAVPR

P450 3A4 = P450 3A4 (Homo sapiens, UniProt P08684); assay: P450 inhibition 3A4; type: in vitro ADME
P450 3A4, sequence (P08684 whole entry): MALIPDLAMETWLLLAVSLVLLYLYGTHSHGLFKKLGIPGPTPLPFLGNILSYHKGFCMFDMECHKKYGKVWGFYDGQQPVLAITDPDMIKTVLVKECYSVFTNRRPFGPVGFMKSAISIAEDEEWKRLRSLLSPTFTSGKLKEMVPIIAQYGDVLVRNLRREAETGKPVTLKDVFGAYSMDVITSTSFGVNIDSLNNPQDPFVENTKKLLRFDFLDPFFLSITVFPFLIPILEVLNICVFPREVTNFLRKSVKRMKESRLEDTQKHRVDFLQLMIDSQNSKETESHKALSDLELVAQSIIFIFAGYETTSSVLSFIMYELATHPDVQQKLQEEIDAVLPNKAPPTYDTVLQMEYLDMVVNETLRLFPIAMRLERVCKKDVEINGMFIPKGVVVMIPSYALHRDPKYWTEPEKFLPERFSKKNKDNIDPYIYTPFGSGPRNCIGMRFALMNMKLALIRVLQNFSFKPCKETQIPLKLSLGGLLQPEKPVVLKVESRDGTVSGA

Solubility in D5W = conditions: in D5W
[7] = In vivo mouse pharmacokinetics (IV, CD-1 mice)
Protocol: Mouse PK (FIG. 2): The experiment was performed using the compounds synthesized in lab and purified by preparative HPLC (>91%). All the compounds were dissolved in D5W (5% dextrose in water) at for IV injection. Female CD-1 mice were (3 per group; body weight approx. 30 g each) injected with the compounds (as per planned dosage) and the blood samples were collected at different time points and the compound content was analysed using the following procedure. • Instrument: Triple Quad 6500+ • Matrix […] CD-1 mouse plasma (EDTA-K2) • Analyte(s): Compound 1 • Internal standard(s): 100 ng/mL Labetalol & 100 ng/mL Tolbutamide in ACN • MS conditions ESI: positive • SRM detection • Compound 1: [M+H]+m/z 979.8>798.4 • Labelatol (IS): [M+H]+m/z 329.2>162.1 • UPLC conditions • Mobile Phase A: 0.1% FA in Water • Mobile Phase B: 0.1% FA in ACN
An aliquot of 90 μL supernatant was transferred to sample plate and mixed with 60 μL water, then the plate was shaken at 800 rpm for 10 min, 15.0 μL supernatant was injected for LC-MS/MS analysis. • Calibration curve: • 1.00-3000 ng/ml, for Compound 1 in female CD-1 mouse plasma (EDTA-K2)

[8] = 2 isolates, Table 3, read-out: MIC Candida krusei

With `C[C@@H]1[C@H](O)[C@@H](C)/C=C/C=C/C=C/C=C/C=C/C=C/C=C/[C@H](OC2O[C@H](C)[C@@H](O)[C@H](N)[C@@H]2O)C[C@@H]2O[C@](O)(C[C@@H](O)C[C@@H](O)[C@H](O)CC[C@@H](O)C[C@@H](O)CC(=O)O[C@H]1C)C[C@H](O)[C@H]2C(=O)O` (some centres unmarked) [AmB, Amphotericin B] the “Mouse candidiasis model 5 mpk; Log (CFU/mL)” value (C. albicans SN250) was 5.2 Log (CFU/mL), the “Binds Cholesterol” value [1] was “Yes” and the MIC (A. flavus; Aspergillus flavus, 3 isolates, Table 2A) was 4 µM (≈ 3.7 µg/mL). The MIC (A. flavus; Aspergillus flavus, 6 isolates, AmB (AmBisome)) was 1.16 µM (≈ 1.07 µg/mL), the MIC (A. terreus; Aspergillus terreus, 5 isolates, Table 2A) was 7 µM (≈ 6.47 µg/mL) and the MIC (A. terreus; Aspergillus terreus, 6 isolates, AmB (AmBisome)) was 3 µM (≈ 2.77 µg/mL). The MIC (A. lentulus; Aspergillus lentulus) was 3.75 µM (≈ 3.47 µg/mL), the MIC (Histoplasma capsulatum; Histoplasma capsulatum, read-out: MIC Histoplasma capsulatum) was 0.06 µM (≈ 0.0554 µg/mL) and the MIC ([2]; Paecilomyces variotii) was 1 µM (≈ 0.924 µg/mL). It also gave an MIC (Licht. Corymbifera; Lichtheimia corymbifera) of 0.23 µM (≈ 0.213 µg/mL), an MIC (Licht. Ramosa) of 0.15 µM (≈ 0.139 µg/mL) and an MIC (Saksenaea sp.) of 0.06 µM (≈ 0.0554 µg/mL). The MIC (Candida krusei; Pichia kudriavzevii, read-out: MIC Candida krasei) was 2.5 µM (≈ 2.31 µg/mL), the MIC (Candida krusei; Pichia kudriavzevii, 2 isolates, Table 3, read-out: MIC Candida krusei) was 1 µM (≈ 0.924 µg/mL) and the MIC (Cryptococcus neoformans; Cryptococcus neoformans, 3 isolates, Table 3A) was 1.17 µM (≈ 1.08 µg/mL). For the same compound, the MIC (Cryptococcus neoformans; Cryptococcus neoformans, 10 isolates, Table 3) was 0.55 µM (≈ 0.508 µg/mL), the MIC (Candida albicans) was 0.61 µM (≈ 0.564 µg/mL) and the MIC (Candida tropicalis) was 0.8 µM (≈ 0.739 µg/mL). For the same compound, the MIC (Candida glabrata) was 1.4 µM (≈ 1.29 µg/mL), the MIC (Malassezia furfur) was greater than 16 µM and the MIC (Microsporum canis) was 0.56 µM (≈ 0.517 µg/mL). For the same compound, the MIC (Scedosporium apiospermum) was greater than 16 µM, the MIC (Scedosporium prolificans) was greater than 16 µM and the MIC (Epidermophyton floccosum) was 0.38 µM (≈ 0.351 µg/mL). For the same compound, the MIC ([3]; Purpureocillium lilacinum) was greater than 16 µM, the half-life ([4]; mouse, human, liver microsomes) was greater than 2.42 h and the “Mouse single IV injection: mortality (40 mpk)” value [5] was 0/3. It also gave a Survival [6] of 66%.
With `CC1C=CC=CC=CC=CC=CC=CC=CC(OC2OC(C)C(O)C(N)C2O)CC2OC(O)(CC(O)CC(O)C(O)CCC(O)CC(O)CC(=O)OC(C)C(C)C1O)CC(O)C2C(=O)NC(CO)(CO)CO` (centres unmarked) [Compound 2] the “Binds Cholesterol” value [1] was “No”, the “P450 Inhibition (%) 1A2” value (P450 1A2) was 0.0% and the “P450 Inhibition (%) 2C9” value (P450 2C9) was 0.0%. For the same compound, the “P450 Inhibition (%) 2C19” value (P450 2C19) was 1.1%, the “P450 Inhibition (%) 2D6” value (P450 2D6) was 0.0% and the “P450 Inhibition (%) 3A4” value (P450 3A4) was 14.5%. The MIC (A. flavus; 6 isolates, AmB (AmBisome)) was 1.67 µM (≈ 1.72 µg/mL), the MIC (A. terreus; 6 isolates, AmB (AmBisome)) was 2.3 µM (≈ 2.36 µg/mL) and the MIC (A. lentulus) was 4.33 µM (≈ 4.45 µg/mL). The “MIC Histoplasma capsulatum” value (Histoplasma capsulatum) was 0.08 µM (≈ 0.0822 µg/mL), the MIC [2] was 2.67 µM (≈ 2.74 µg/mL) and the MIC (Licht. Corymbifera) was 1 µM (≈ 1.03 µg/mL). It also gave an MIC (Licht. Ramosa) of 0.75 µM (≈ 0.77 µg/mL), an MIC (Saksenaea sp.) of 0.36 µM (≈ 0.37 µg/mL) and an MIC (Candida krusei; [8]) of 3 µM (≈ 3.08 µg/mL). The MIC (Cryptococcus neoformans; 10 isolates, Table 3) was 2 µM (≈ 2.05 µg/mL), the MIC [3] was greater than 16 µM and the “Solubility” value (Solubility in D5W) was 366 µM (≈ 376 µg/mL). The “Liver microsome (T1/2, min)” value [4] was greater than 145 min.
In the case of `CC1C=CC=CC=CC=CC=CC=CC=CC(OC2OC(C)C(O)C(N)C2O)CC2OC(O)(CC(O)CC(O)C(O)CCC(O)CC(O)CC(=O)OC(C)C(C)C1O)CC(O)C2C(=O)NC(CO)CO` (centres unmarked) [Compound 1], the “Mouse candidiasis model 5 mpk; Log (CFU/mL)” value (C. albicans SN250) is reported as 4.8 Log (CFU/mL), the “Binds Cholesterol” value [1] is reported as “No” and the “P450 Inhibition (%) 1A2” value (P450 1A2) is reported as 8.7%. The “P450 Inhibition (%) 2C9” value (P450 2C9) was 26.9%, the “P450 Inhibition (%) 2C19” value (P450 2C19) was 0.0% and the “P450 Inhibition (%) 2D6” value (P450 2D6) was 0.0%. For the same compound, the “P450 Inhibition (%) 3A4” value (P450 3A4) was 14.5%, the “In vivo PK AUC0-inf (ng*hr/mL)” value ([7]; 1 mg/kg) was 18785] ng*hr/mL and the “In vivo PK Cl” value ([7]; 1 mg/kg) was 0.891 mL/min/kg. For the same compound, the “In vivo PK T1/2,” value ([7]; 1 mg/kg) was 8.37 h, the “In vivo PK AUC0-inf” value ([7]; 5 mg/kg) was 79575 ng·h/mL and the “In vivo PK Cl” value ([7]; 5 mg/kg) was 1.05 mL/min/kg. The “In vivo PK T1/2,” value ([7]; 5 mg/kg) was 9.6 h, the MIC (A. flavus; 6 isolates, AmB (AmBisome)) was 1.67 µM (≈ 1.67 µg/mL) and the MIC (A. terreus; 6 isolates, AmB (AmBisome)) was 2 µM (≈ 1.99 µg/mL). The MIC (A. lentulus) was 2.33 µM (≈ 2.32 µg/mL), the “MIC Histoplasma capsulatum” value (Histoplasma capsulatum) was 0.06 µM (≈ 0.0598 µg/mL) and the MIC [2] was 2 µM (≈ 1.99 µg/mL). It also gave an MIC (Licht. Corymbifera) of 0.5 µM (≈ 0.499 µg/mL), an MIC (Licht. Ramosa) of 0.58 µM (≈ 0.578 µg/mL) and an MIC (Saksenaea sp.) of 0.23 µM (≈ 0.229 µg/mL). For the same compound, the MIC (Candida krusei; [8]) was 2 µM (≈ 1.99 µg/mL), the MIC (Cryptococcus neoformans; 10 isolates, Table 3) was 2 µM (≈ 1.99 µg/mL) and the MIC [3] was greater than 16 µM. For the same compound, the “Solubility” value (Solubility in D5W) was greater than 7220 µM, the “Liver microsome (T1/2, min)” value [4] was greater than 145 min and the “Mouse single IV injection: mortality (40 mpk)” value [5] was 0/4.
